# Values quoted from earlier work as cited in US20120244588A1, “METHOD OF PRODUCING 3-HYDROXYPROPIONIC ACID USING MALONIC SEMIALDEHYDE REDUCING PATHWAY” (SAMSUNG ELECTRONICS CO., LTD., priority 2011, published 2012).
# Assays:
# [1] = 25° C.
Compound,pKa [1],solubility in water,solubility in water relative to citric acid or malic acid [times]
"O=C(O)CCO [3-HP, 3-hydroxypropionic acid]",4.51,very soluble,
O=C([O-])CCO.O=C([O-])CCO.[Ca+2] [calcium salt of 3-HP],,,100
